Reference: paper PMC13379085 (PLOS Neglected Tropical Diseases, 2026)
Converted amounts (≈) assume the structure as drawn. Read-outs that look alike come from different tables or passages of the source.

What was measured:
[1] = system: Extracellular L. donovani promastigotes; assay: Resazurin viability assay of extracellular L. donovani promastigotes; type: cell-based, Leishmania donovani; details: for Extracellular L. donovani promastigotes MIC50: 72-hour incubation
Experimental: (§1) The effect of compounds on extracellular promastigotes was evaluated using a resazurin-based assay as described previously. In short, late log phase Leishmania promastigotes were seeded in a 96 well plate at 1 x 10^5 parasites per well and treated with drugs (0.5 – 200 µM) for 72 hours at 25°C. Ten microliters of Resazurin (0.02% w/v) were added to the treated parasites to achieve a final concentration of 0.002% w/v and incubated for 24 hours. Viability of the promastigotes was assessed by fluorescence (excitation 544 nm, emission 590 nm, SpectraMax M2, Molecular Devices).

[2] = system: THP-1 macrophages; assay: MTT viability of THP-1 macrophages (host cell cytotoxicity); type: cell-based; details: for CC50: MTT assay
Experimental: Human monocytes, THP-1 (ATCC, TIB002) were used as host cells for Leishmania infection and to assess drug cytotoxicity. The cells were cultured at 37C, 5% CO2 in RPMI medium (ATCC) supplemented with 10% FBS, 1% Penicillin/Streptomycin and 0.05 mM of β-mercaptoethanol. Cells were used in experiments up to passage 10.
Effect of the compounds on THP-1 cell viability measured using thiazolyl blue tetrazolium bromide which measures cell metabolic activity (MTT). […] Macrophages were then treated with compounds resuspended in RPMI media (1–50 µM) for 24 hours. Media was replaced with thiazolyl blue tetrazolium bromide solubilized in RPMI media (0.5 mg/mL) and incubated at 37°C for 2 hours. The reduced formazan crystals were solubilized with isopropyl alcohol and the absorbance of the resulting solution was measured at 560 nm with a background subtraction at 670 nm. […] This process was repeated with a 72-hr incubation and extended concentration range (1–300 µM) for select compounds.

[3] = system: Intracellular L. donovani amastigotes; assay: Luminescence-based assay of intracellular L. donovani burden in THP-1 macrophages; type: cell-based, Leishmania donovani; details: for IC50: THP1 macrophages, luminescence assay, 72 hours of treatment, read-out: Intracellular L. donovani amastigotes Lum IC50; for Selectivity 24h LC50/ Lum IC50: host-directed effect vs cytotoxicity in THP-1
Experimental: Luminescent strains, L. donovani LV82 expressing firefly luciferase (a kind gift from Dr. Abhay Satoskar, Ohio State University) and L. mexicana (NR-51210, ATCC) expressing renilla luciferase were used to evaluate the effect of the compounds in intracellular and extracellular conditions. Wild-type L. donovani LV82 (ATCC) were used for Giemsa staining based experiments. All parasites were cultured at 25°C and 5% CO2 in M199 media (Corning) supplemented with 10% FBS, 1% Penicillin/Streptomycin, and Hemin (0.01 mg/mL), and used in experiments up to passage 15.
THP-1 cells were seeded in a 96 well plate (25,000 cells/well) overnight then differentiated with 150 nM phorbol 12-myristate 13-acetate (PMA) over 72 hours (S1 Fig). […] Briefly, promastigotes of a known cell density were resuspended in RPMI media (with 10% FBS, 1% P/S and 0.05 mM β-mercaptoethanol) and incubated with adhered THP-1 cells over 18 hours. After infection, cells were washed three times with fresh media to remove extracellular promastigotes.
Infected macrophages were then treated with compounds solubilized in DMSO ranging from 0.1-10 µM in concentrations. After 72 hours of treatment, the viability of the amastigotes within macrophages was determined using Promega firefly luminescence assay (Cat E1500) or Pierce Renilla luciferase assay (Cat 16166) for L. donovani and L. mexicana strains, respectively. Briefly, media was removed, and cells were lysed with the assay lysis buffer. The luciferase substrate was then incubated with the lysed cells for 10 min at room temperature and luminescence of live Leishmania was measured in a white opaque 96 well plate using a Biotek plate reader.

[4] = system: Intracellular L. donovani amastigotes; assay: Image-based Giemsa staining of intracellular L. donovani in bone marrow derived macrophages; type: cell-based, Leishmania donovani; details: 72-hour incubation
Experimental: (§2) Bone marrow derived macrophages (BMDMs) were isolated from BALB/c mice and cultured as previously described. […] Completely differentiated BMDMs are obtained after 7 days of culture with media change every 2 days. Harvested cells are seeded onto 10 mm glass cover slips at 5 x 10^5 cells/ well of a 24 well plate in DMEM media (without LCM) and allowed to adhere overnight. BMDM cells are then infected overnight with LV82 L. donovani or L. mexicana (NR-51210) at a multiplicity of infection of 10. After infection, cells were washed three times with fresh media to remove extracellular promastigotes and treated with compounds for a 72-hour incubation. BMDM cells were then washed with phosphate buffered saline, fixed with ice-cold methanol, and stained with Giemsa (5% v/v in water). The cover slips with stained cells are mounted onto glass slides and imaged on EVOS XL (100X, Thermo Fisher Scientific). Leishmania amastigotes per 100 macrophages were determined in a blinded manner.

[5] = system: LV82 L. donovani; assay: Giemsa staining of intracellular L. donovani in BMDMs from wildtype C57BL/6 or lysozyme knockout mice; type: cell-based, Leishmania donovani; details: 72-hour incubation
From the text: B6.129P2-Lyz2^tm1(cre)Ifo/J mice (stock #004781, herein termed ‘Lys K/O’) were obtained from Jackson Laboratory. This strain has a nuclear-localized Cre recombinase inserted into the first coding ATG of the lysozyme 2 gene (Lyz2) which eliminates endogenous Lyz2 gene function. Wildtype C57BL6/J mice (stock #000664) were obtained as a control.
Bone marrow derived macrophages (BMDMs) were isolated from both mice and cultured as described above in “Image-based Evaluation of Intracellular Anti-Leishmanial Activity”. BMDMs were seeded onto glass cover slips, infected with LV82 L. donovani at a multiplicity of infection of 1:10. Cells were washed to remove extracellular promastigotes and treated with compounds (197, amphotericin B) for a 72-hour incubation. BMDM cells were then washed with phosphate buffered saline, fixed with ice-cold methanol, and stained with Giemsa (5% v/v in water). The cover slips with stained cells are mounted onto glass slides and imaged on EVOS XL (100X, Thermo Fisher Scientific). Leishmania amastigotes per 100 macrophages were determined in a blinded manner.

[6] = system: Intracellular L. mexicana amastigotes; assay: microbe, parasite or virus in culture; type: cell-based, Leishmania mexicana; details: Leishmania mexicana, Macrophage, 72 h, bone marrow derived macrophages, Giemsa staining, 72-hour incubation
Experimental: as §2

[7] = system: Extracellular L. mexicana promastigotes; assay: Resazurin viability assay of extracellular L. mexicana promastigotes; type: cell-based, Leishmania mexicana; details: Leishmania mexicana, 72-hour incubation
Experimental: as §1

[8] = system: L. donovani; details: cited from earlier work
[9] = 72-hour incubation, read-out: 72 hr viability of THP-1 macrophages LC50
[10] = read-out: 24 hr viability of THP-1 macrophages 24h LC50, 24-hour incubation

Row | Structure (SMILES) | Extracellular L. donovani promastigotes MIC50 [1] | CC50 [2, 9] | CC50 [2, 10] | IC50 [3] | IC50 [4] | further results
1 | NCC(=O)Nc1ccc(-n2cc(C(F)(F)F)nc2-c2ccc(-c3ccccc3)cc2)cc1 [Compound 50] | 14.6 µM | 42.7 µM | 23.5 µM | 1.5 µM | 9.1 µM | 
2 | CC(C)(C)C#Cc1ccc(-c2cc(C(F)(F)F)nn2-c2ccc(N3CCNCC3)cc2)cc1 [Compound 44] | 1.9 µM | 14.5 µM | 7.4 µM | 0.9 µM | 1 µM | 
3 | C[C@@H]1[C@H](O)[C@@H](C)/C=C/C=C/C=C/C=C/C=C/C=C/C=C/[C@H](O[C@@H]2O[C@H](C)[C@@H](O)[C@H](N)[C@@H]2O)C[C@@H]2O[C@](O)(C[C@@H](O)C[C@@H](O)[C@H](O)CC[C@@H](O)C[C@@H](O)CC(=O)O[C@H]1C)C[C@H](O)[C@H]2C(=O)O [Amphotericin B, reference compound] |  |  |  |  |  | anti-leishmanial activity in WT and Lys K/O BMDMs [5]: retained its anti-leishmanial activity in both WT and Lys K/O BMDMs
4 | Oc1ccc(CNC2CCN(c3ccc(-n4nc(C(F)(F)F)cc4C4CCCCC4)cc3)CC2)cc1 [Compound 319] | 0.8 µM | 7.2 µM | 6.4 µM | 0.8 µM | 3.4 µM | 
5 | N[C@H]1CCN(c2ccc(-n3nc(C(F)(F)F)cc3-c3ccc(-c4ccc(C(F)(F)F)cc4)cc3)cc2)C1 [Compound 130] | 2.1 µM | 6.4 µM | 4.2 µM | 0.2 µM | 1.6 µM | 
6 | NC1CCN(c2ccc(-n3nncc3-c3ccc(C(F)(F)F)cc3)cc2)C1 (stereo not drawn) [Compound 134] |  |  |  |  |  | IC50 [6]: 0.8 µM; MIC50 [7]: 16.5 µM (≈ 6.16 µg/mL); Selectivity 24h LC50/ Lum IC50 [3]: 42.1
7 | Nc1ccc(CNC2CCN(c3ccc(-n4nc(C(F)(F)F)cc4-c4ccc(-c5ccc(C(F)(F)F)cc5)cc4)cc3)C2)cc1 (stereo not drawn) [Compound 23] | 4.0 µM | 6.9 µM | 5.8 µM | 0.4 µM | 0.9 µM | 
8 | NCC(=O)Nc1ccc(-n2nc(C(F)(F)F)cc2-c2ccc3c(ccc4ccccc43)c2)cc1 [AR-12, reference compound] |  |  |  |  |  | IC50 [6]: 1.5 µM; direct effect on the promastigote [8]: no direct effect; parasite burden of L. donovani in infected macrophages ([8]; in vitro and in vivo): decrease the parasite burden; MIC50 [7]: 15.1 µM (≈ 6.95 µg/mL)
9 | O=C(Nc1ccc(-n2cc(C(F)(F)F)nc2-c2ccc(-c3ccccc3)cc2)cc1)C1CCN(Cc2ccccc2)C1 (stereo not drawn) [Compound 86] | 3.2 µM | 8.2 µM | 21.9 µM | 1.4 µM | 0.6 µM | 
10 | FC(F)(F)c1ccc(-c2ccc(-c3cc(C(F)(F)F)nn3-c3ccc(NC4CCNC4)cc3)cc2)cc1 (racemic) [Compound 25] | 2.1 µM | 6.3 µM | 28.9 µM | 0.7 µM | 2.5 µM | 
11 | NCC(=O)Nc1ccc(-n2ccnc2-c2ccc(-c3ccc(C(F)(F)F)cc3)cc2)cc1 [Compound 158] | 4.6 µM | 16.5 µM | 16 µM | 0.2 µM | 0.6 µM | intracellular activity (primary screen) ([3]; imidazole series): retaining potent intracellular activity
12 | N#Cc1cccc(CN2CCC(Nc3ccc(-n4nc(C(F)(F)F)cc4-c4ccc(-c5ccc(C(F)(F)F)cc5)cc4)cc3)C2)c1 (stereo not drawn) [Compound 53] |  |  |  |  |  | direct effects on extracellular promastigote viability ([1]; for 53 strain not specified): no direct effects; MIC50 [7]: > 200 µM; reduction in macrophage viability ([2]; 72 hr incubation up to 300µM): Neither compound had any reduction; Selectivity 24h LC50/ Lum IC50 [3]: >112.6
13 | N[C@@H]1CCN(c2ccc(-n3nc(C(F)(F)F)cc3-c3ccc(-c4ccc(C(F)(F)F)cc4)cc3)cc2)C1 [Compound 129] | 1.7 µM | 6.2 µM | 6.3 µM | 0.1 µM | 0.4 µM | 
14 | Oc1ccccc1CN1CCC(Nc2ccc(-n3nc(C(F)(F)F)cc3-c3ccc(-c4ccc(C(F)(F)F)cc4)cc3)cc2)C1 (stereo not drawn) [Compound 91] | 56.3 µM | 53.4 µM | > 50 µM | 1.4 µM | 2.4 µM | 
15 | N#Cc1ccc(CNCC(=O)Nc2ccc(-n3nc(C(F)(F)F)cc3C3CCCCC3)cc2)cc1 [Compound 354] |  |  |  |  |  | IC50 [6]: 3.5 µM; MIC50 [7]: 30.7 µM (≈ 14.8 µg/mL); Selectivity 24h LC50/ Lum IC50 [3]: 44.9
